pIC50: −log10 of the molar value. Structures can show the parent of a compound that is named as a salt.
Target: hERG (Homo sapiens, UniProt Q12809)
Experiment: cell-based
Conditions: not given

Chain of hERG (Q12809 whole entry): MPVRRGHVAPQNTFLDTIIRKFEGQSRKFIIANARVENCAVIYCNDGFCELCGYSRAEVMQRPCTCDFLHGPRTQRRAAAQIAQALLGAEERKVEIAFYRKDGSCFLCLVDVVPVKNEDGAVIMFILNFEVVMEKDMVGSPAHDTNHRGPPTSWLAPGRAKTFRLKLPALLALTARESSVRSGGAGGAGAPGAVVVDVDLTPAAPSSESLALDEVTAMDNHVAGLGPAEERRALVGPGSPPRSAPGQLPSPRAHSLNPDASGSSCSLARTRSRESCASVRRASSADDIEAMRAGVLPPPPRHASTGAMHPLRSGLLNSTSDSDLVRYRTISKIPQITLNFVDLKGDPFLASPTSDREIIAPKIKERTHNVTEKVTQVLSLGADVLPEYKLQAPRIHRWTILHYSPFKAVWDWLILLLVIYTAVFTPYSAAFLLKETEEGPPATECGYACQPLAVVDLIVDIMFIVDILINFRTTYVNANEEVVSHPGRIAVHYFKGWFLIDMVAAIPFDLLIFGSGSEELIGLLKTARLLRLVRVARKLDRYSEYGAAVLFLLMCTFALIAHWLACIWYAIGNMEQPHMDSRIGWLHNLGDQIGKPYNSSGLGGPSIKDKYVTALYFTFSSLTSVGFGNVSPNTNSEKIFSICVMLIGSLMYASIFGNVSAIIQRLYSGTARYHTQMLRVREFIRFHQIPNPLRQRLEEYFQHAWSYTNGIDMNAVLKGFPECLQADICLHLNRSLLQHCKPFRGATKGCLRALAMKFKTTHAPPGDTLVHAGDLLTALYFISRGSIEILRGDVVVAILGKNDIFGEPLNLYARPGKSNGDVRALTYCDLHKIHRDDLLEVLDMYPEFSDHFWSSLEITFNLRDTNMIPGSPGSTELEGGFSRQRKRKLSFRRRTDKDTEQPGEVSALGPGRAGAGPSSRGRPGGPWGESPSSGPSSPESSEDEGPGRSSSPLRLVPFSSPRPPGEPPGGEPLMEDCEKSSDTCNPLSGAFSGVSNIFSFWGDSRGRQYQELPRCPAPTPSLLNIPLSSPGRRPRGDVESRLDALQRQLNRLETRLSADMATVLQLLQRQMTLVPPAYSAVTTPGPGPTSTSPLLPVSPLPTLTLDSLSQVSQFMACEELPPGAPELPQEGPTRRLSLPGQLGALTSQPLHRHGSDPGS

Row | Structure (SMILES) | pIC50
1 | O[C@@H](COc1cccc2ncccc12)CN1CCN([C@@H]2c3ccccc3[C@@H]3[C@H](c4ccccc42)C3(F)F)CC1 [LY335979 trihydrochloride] | 4.92

Same assay, conditions: (-LOG10(IC50), µM)

Row | Structure (SMILES) | IC50
2 | COC(=O)C(C)Oc1ccc(Oc2ncc(C(F)(F)F)cc2Cl)cc1 (stereo not drawn) [Haloxyfop-methyl] | 35.1 µM
3 | CC(C)(C)c1cc([N+](=O)[O-])cc(C(C)(C)C)c1O [2,6-Di-tert-butyl-4-nitrophenol] | 38.9 µM
4 | COC(=O)C1=C(C)NC(C)=C(C(=O)OCCN2CCN(C(c3ccccc3)c3ccccc3)CC2)C1c1cccc([N+](=O)[O-])c1 (stereo not drawn) [Manidipine dihydrochloride] | 7 µM
5 | CCCCCC[n+]1ccn(C)c1.O=S(=O)([N-]S(=O)(=O)C(F)(F)F)C(F)(F)F [1-Hexyl-3-methylimidazolium bis(trifluoromethylsulfonyl)imide] | 45.4 µM
6 | CCOCCn1c(N2CCCN(C)CC2)nc2ccccc21 [Emedastine difumarate] | 6.24 µM
7 | CC(C)COC(=O)C=Cc1ccccc1 [Isobutyl 3-phenylacrylate] | 50.9 µM
8 | O=C1c2ccccc2C(=O)N1CCc1noc(-c2ccc(CN3CCCCCC3)s2)n1 [PharmaGSID_48172] | 23.4 µM
9 | CS/C(C)=N/OC(=O)N(C)SN(C)C(=O)O/N=C(\C)SC [Thiodicarb] | 43.6 µM
10 | CC1(C)CCC[C@]2(C)[C@H]3CC(=O)O[C@]3(C)CC[C@@H]12 [(3aR)-(+)-Sclareolide] | 42 µM
11 | COc1ccc2cc(S(=O)(=O)N[C@H](CC(=O)N[C@H](Cc3ccc(CN4[C@H](C)CCC[C@@H]4C)cc3)C(=O)N(C)C(C)C)c3ccc4c(c3)OCO4)ccc2c1 [SSR 240612] | 7.07 µM
12 | CN(C)CCN(Cc1ccc(Cl)cc1)c1ccccn1 [Chloropyramine hydrochloride] | 2.39 µM
13 | CCCCCCCCCCCCCCCC[N+](C)(C)C [Hexadecyl trimethyl ammonium chloride] | 18.1 µM
14 | CCCCCCCCCCCCCCCC[N+](C)(C)Cc1ccccc1 [Benzylhexadecyldimethylammonium chloride] | 3.94 µM
15 | C[C@]12CC[C@H]3[C@@H](CCC4=CC(=O)CC[C@@H]43)[C@@H]1CC[C@@H]2OC(=O)CCc1ccccc1 [Nandrolone phenpropionate] | 12.5 µM
16 | OC(c1ccc(Cl)cc1)(c1ccc(Cl)cc1)C(Cl)(Cl)Cl [Dicofol] | 30.9 µM
17 | COc1ccc(CCN(C)CCCC(C#N)(c2cc(OC)c(OC)c(OC)c2)C(C)C)cc1OC (stereo not drawn) [Gallopamil hydrochloride] | 7.28 µM
18 | O=C1c2c(O)ccc(Nc3ccc(CCO)cc3)c2C(=O)c2c([N+](=O)[O-])ccc(O)c21 [C.I. Disperse Blue 27] | 43.6 µM
19 | O=C(c1ccccc1)C(Cl)Cl [2,2-Dichloro-1-phenylethanone] | 36 µM
20 | CCCCc1cc2ccccc2c(OCCN(C)C)n1 [Dimethisoquin hydrochloride] | 3.65 µM
21 | O=C1C=CC(=O)N1c1ccccc1 [1-Phenyl-1H-pyrrole-2,5-dione] | 50.9 µM
22 | CCCCCOC(=O)COc1cc(N2C(=O)C3=C(CCCC3)C2=O)c(F)cc1Cl [Flumiclorac-pentyl] | 16.4 µM
23 | Cn1cc(C(=O)[C@@H]2CCc3nc[nH]c3C2)c2ccccc21 [Ramosetron hydrochloride] | 20.5 µM

Row | Structure (SMILES) | IC50
24 | CCCCCCCCCCn1cc[n+](CCCCCCCCCC)c1C [1,3-Didecyl-2-methylimidazolium chloride] | 0.51 µM
25 | CC(=O)OCCN(CCOC(C)=O)c1ccc(/N=N/c2ccc([N+](=O)[O-])cc2C#N)cc1 [Disperse Red 82] | 24.5 µM
26 | CCCSSC(CCO)=C(C)N(C=O)Cc1cnc(C)nc1N [Prosultiamine] | 10.7 µM
27 | Clc1ccc(C(OCCN2CCCCC2)c2ccccc2)cc1 (stereo not drawn) [Cloperastine hydrochloride] | 0.849 µM
28 | COc1ccc2[nH]cc(CCN(C(C)C)C(C)C)c2c1 [5-Methoxy-N,N-diisopropyltryptamine hydrochloride] | 25.2 µM
29 | Cc1cc2c(OCC(CNC(C)(C)C)OC(=O)c3ccccc3)cccc2[nH]1 (stereo not drawn) [Bopindolol] | 21.3 µM
30 | CCCN(CCC)c1c([N+](=O)[O-])cc(C(F)(F)F)c(N)c1[N+](=O)[O-] [Prodiamine] | 37.3 µM
31 | CCCCCCCCCCCCCCCCn1cc[n+](C)c1 [1-Hexadecyl-3-methylimidazolium chloride] | 14.1 µM
32 | CCC(Cc1ccccc1)(C(=O)c1ccc(N2CCOCC2)cc1)N(C)C (stereo not drawn) [2-Benzyl-2-(dimethylamino)-1-[4-(morpholin-4-yl)phenyl]butan-1-one] | 19.5 µM
33 | CC1=C(C(=O)OC(C)C)C(c2cccc([N+](=O)[O-])c2)C(C(=O)OC2CN(C(c3ccccc3)c3ccccc3)C2)=C(N)N1 (stereo not drawn) [Azelnidipine] | 8.99 µM
34 | O=C1[C@H]2CCCC[C@H]2C(=O)N1CCCCN1CCN(c2nsc3ccccc23)CC1 [Perospirone hydrochloride] | 8.49 µM
35 | CC(Cc1ccccc1)NCCCCl (stereo not drawn) [Mefenorex] | 16.3 µM
36 | CCCCCOc1ccccc1/C(=C\SC)n1ccnc1 [Neticonazole] | 20.5 µM
37 | Cc1[nH]cnc1C[C@H]1CCc2c(C)c3ccccc3n2C1=O [Fabesetron hydrochloride] | 7.01 µM
38 | N#C/C(=C1/SC[C@@H](c2ccc(Cl)cc2Cl)S1)n1ccnc1 [Luliconazole] | 3.13 µM
39 | CCOC(=O)C(O)(c1ccc(Cl)cc1)c1ccc(Cl)cc1 [Chlorobenzilate] | 33.7 µM
40 | Cc1ccc(C(=O)Oc2ccc(C(O)CNC(C)(C)C)cc2OC(=O)c2ccc(C)cc2)cc1 (stereo not drawn) [Bitolterol] | 5.78 µM
41 | CCN(CCN)c1cccc(C)c1 [N-Ethyl-N-(3-methylphenyl)ethane-1,2-diamine] | 49 µM
42 | CC(C)Nc1cccnc1N1CCN(C(=O)c2cc3cc(NS(C)(=O)=O)ccc3[nH]2)CC1 [Delavirdine] | 11.1 µM
43 | Oc1ccc(C(c2ccc(O)cc2)(C(F)(F)F)C(F)(F)F)cc1 [Bisphenol AF] | 43.4 µM
44 | CC(C)OC(=O)c1cc(C(=O)OC(C)C)cc([N+](=O)[O-])c1 [Nitrothal-isopropyl] | 40.6 µM
45 | CC(=O)O[C@@H]1CC2C3CCc4cc(OC(=O)c5ccccc5)ccc4C3CCC2(C)[C@H]1OC(C)=O (stereo partly drawn) [Estriol benzoate diacetate] | 5.35 µM

Row | Structure (SMILES) | IC50
46 | Fc1ccc(C(c2ccc(F)cc2)N2CCNCC2)cc1 [1-(Bis(4-fluorophenyl)methyl)piperazine] | 19.7 µM
47 | CN1CCCN(C(c2ccccc2)c2ccc(Cl)cc2)CC1 (stereo not drawn) [Homochlorcyclizine] | 1.83 µM
48 | CCN(CC)CCOc1ccc(C(O)(Cc2ccc(Cl)cc2)c2ccc(C)cc2)cc1 (stereo not drawn) [Triparanol] | 1.11 µM
49 | CC(=O)c1ccc2c(c1)N(CCCN(C)C)c1ccccc1S2 [Acetopromazine maleate] | 15.1 µM
50 | CCCCCC(C)OC(=O)COc1ccc(Cl)c2cccnc12 (stereo not drawn) [Cloquintocet-mexyl] | 16.1 µM
51 | CC(C)OC(=O)C(O)(c1ccc(Cl)cc1)c1ccc(Cl)cc1 [Chloropropylate] | 22.7 µM
52 | O=C1C=CC(=O)N1c1cccc(N2C(=O)C=CC2=O)c1 [N,N'-1,3-Phenylenedimaleimide] | 49 µM
53 | c1cc(CN2CCCCC2)cc(OCCCNc2nc3ccccc3s2)c1 [Zolantidine dimaleate] | 9.16 µM
54 | CCCC[P+](CCCC)(CCCC)CCCC [Tetrabutylphosphonium bromide] | 16 µM
55 | CN1CCN(c2ccccc2/C=C2\SCCN(c3ccc(Cl)c(Cl)c3)C2=O)CC1 [Elzasonan] | 1.61 µM
56 | CC(C)CC(C)Nc1ccc(Nc2ccccc2)cc1 (stereo not drawn) [6PPD] | 29 µM
57 | CC(C)(C)C(=O)C=Cc1ccc(Cl)cc1 [1-(4-Chlorophenyl)-4,4-dimethylpent-1-en-3-one] | 43.6 µM
58 | CC(COc1ccc(Oc2ccccc2)cc1)Oc1ccccn1 (stereo not drawn) [Pyriproxyfen] | 21 µM
59 | CN1CCC(=C2c3ccccc3CCc3sccc32)CC1 [Pizotyline] | 10.3 µM
60 | Clc1ccc(Cn2c(CN3CCCC3)nc3ccccc32)cc1 [Clemizole hydrochloride] | 1.34 µM
61 | CN1CCC(=C2c3ccccc3Sc3ccccc32)CC1 [Pimethixene maleate] | 9.89 µM
62 | C=CC(=O)OCC1CC2CC1C1CCC(COC(=O)C=C)C21 (stereo not drawn) [Tricyclodecanedimethanol diacrylate] | 36 µM
63 | C=CCOc1cc(Cl)ccc1C(=O)NCCN(CC)CC [Alloclamide] | 8.82 µM
64 | CN1[C@@H]2CC[C@H]1C[C@@H](OC(=O)c1c[nH]c3ccccc13)C2 [Tropisetron] | 12.9 µM
65 | CCCCCCCC[n+]1ccn(C)c1 [1-Methyl-3-octylimidazolium chloride] | 19.4 µM
66 | CC(C)CC(C)N(c1ccccc1)c1ccc(N)cc1 (stereo not drawn) [N-(4-Methylpentan-2-yl)-N-phenylbenzene-1,4-diamine] | 27.5 µM

— paper PMC8869358, “High-Throughput Chemical Screening and Structure-Based Models to Predict hERG Inhibition” (Biology, 2022)
